Assay results from article PMC12141164, “Phase-1 study of vamotinib (PF-114), a 3rd generation BCR::ABL1 tyrosine kinase-inhibitor, in chronic myeloid leukaemia” (Annals of Hematology, 2025).
Several values for one entry are separate records, joined by “and”; a condition that tells them apart may be missing. Identical values can stand only once. Marks after values point to notes of the source that are not given here.

Tested on: BCR::ABL1 positive CML
Experiment: Phase-1 study: haematological, cytogenetic and molecular response
Format: in vivo, human
Settings: for Best response achieved on PF-114: individual patients
Experimental: Haematological response evaluations were done on the first day of each cycle of therapy; molecular response on the first day of cycles 1, 2, 4, 7, 10, 13 and then every three months; cytogenetic response – at screening and on the first days of cycles 4, 7, 13 and every three months thereafter, provided that there was no major molecular response.
Cytogenetic response was assessed by differential staining of chromosomes and if uninformative, by fluorescent in situ hybridization (FISH). Mutations in BCR::ABL1 were assessed by Sanger and next generation sequencing (NGS). Sanger sequencing was done at each center; NGS analyses were done in the laboratory of Prof. Susan Branford, University of Adelaide. Discordances were resolved as described in Table S2. Molecular response was assessed using the ratio of BCR::ABL1 to ABL1 measured according to the IS [9].

[1] = Subjects after ponatinib (N = 5)

Cc1ccc(C(=O)Nc2ccc(CN3CCN(C)CC3)c(C(F)(F)F)c2)cc1C#Cc1nnc2ccccn12 [vamotinib]
Subjects with loss of MCyR (Cohort 5 500 mg N=3): 0 no. (%)
Subjects with loss of MMR (Cohort 5 500 mg N=3): 0 no. (%)
CCyR achieved at treatment (Cohort 6 600 mg N=6): 0 no. (%)
CCyR by 6 months (Cohort 6 600 mg N=6): 0 no. (%)
CCyR by 12 months (Cohort 6 600 mg N=6): 0 no. (%)
CHR achieved at treatment (Cohort 6 600 mg N=6): 2 (33) no. (%)
CHR by the 3 months (Cohort 6 600 mg N=6): 2 (33) no. (%)
CHR by the 6th months (Cohort 6 600 mg N=6): 2 (33) no. (%)
CHR by the 12th months (Cohort 6 600 mg N=6): 2 (33) no. (%)
MCyR achieved at treatment (Cohort 6 600 mg N=6): 0 no. (%)
MCyR by 6 months (Cohort 6 600 mg N=6): 0 no. (%)
MCyR by 12 months (Cohort 6 600 mg N=6): 0 no. (%)
MMR achieved at treatment (Cohort 6 600 mg N=6): 0 no. (%)
MMR by 6 months (Cohort 6 600 mg N=6): 0 no. (%)
MMR by 12 months (Cohort 6 600 mg N=6): 0 no. (%)
MMR by 24 months (Cohort 6 600 mg N=6): 0 no. (%)
Subjects with loss of CCyR (Cohort 6 600 mg N=6): 0 no. (%)
Subjects with loss of CHR (Cohort 6 600 mg N=6): 0 no. (%)
Subjects with loss of MCyR (Cohort 6 600 mg N=6): 0 no. (%)
Subjects with loss of MMR (Cohort 6 600 mg N=6): 0 no. (%)
CCyR achieved at treatment (Cohort 7 750 mg N=4): 0 no. (%)
CCyR by 6 months (Cohort 7 750 mg N=4): 0 no. (%)
CCyR by 12 months (Cohort 7 750 mg N=4): 0 no. (%)
CHR achieved at treatment (Cohort 7 750 mg N=4): 1 (25) no. (%)
CHR by the 3 months (Cohort 7 750 mg N=4): 1 (25) no. (%)
CHR by the 6th months (Cohort 7 750 mg N=4): 1 (25) no. (%)
CHR by the 12th months (Cohort 7 750 mg N=4): 1 (25) no. (%)
MCyR achieved at treatment (Cohort 7 750 mg N=4): 0 no. (%)
MCyR by 6 months (Cohort 7 750 mg N=4): 0 no. (%)
MCyR by 12 months (Cohort 7 750 mg N=4): 0 no. (%)
MMR achieved at treatment (Cohort 7 750 mg N=4): 0 no. (%)
MMR by 6 months (Cohort 7 750 mg N=4): 0 no. (%)
MMR by 12 months (Cohort 7 750 mg N=4): 0 no. (%)
MMR by 24 months (Cohort 7 750 mg N=4): 0 no. (%)
Subjects with loss of CCyR (Cohort 7 750 mg N=4): 0 no. (%)
Subjects with loss of CHR (Cohort 7 750 mg N=4): 0 no. (%)
Subjects with loss of MCyR (Cohort 7 750 mg N=4): 0 no. (%)
Subjects with loss of MMR (Cohort 7 750 mg N=4): 0 no. (%)
CCyR achieved at treatment (Cohort 8 300 mg N=9): 5 no. (%) and 5 (56) no. (%)
CCyR by 6 months (Cohort 8 300 mg N=9): 3 (33) no. (%)
CCyR by 12 months (Cohort 8 300 mg N=9): 4 (44) no. (%)
CHR achieved at treatment (Cohort 8 300 mg N=9): 4 (100) no. (%)
CHR by the 3 months (Cohort 8 300 mg N=9): 4 (100) no. (%)
CHR by the 6th months (Cohort 8 300 mg N=9): 4 (100) no. (%)
CHR by the 12th months (Cohort 8 300 mg N=9): 4 (100) no. (%)
MCyR achieved at treatment (Cohort 8 300 mg N=9): 6 no. (%) and 6 (86) no. (%)
MCyR by 6 months (Cohort 8 300 mg N=9): 4 (57) no. (%)
MMR achieved at treatment (Cohort 8 300 mg N=9): 4 no. (%) and 4 (44) no. (%)
MMR by 6 months (Cohort 8 300 mg N=9): 3 (33) no. (%)
MMR by 12 months (Cohort 8 300 mg N=9): 3 (33) no. (%)
MMR by 24 months (Cohort 8 300 mg N=9): 4 (44) no. (%)
Subjects with loss of CCyR (Cohort 8 300 mg N=9): 1 (20) no. (%)
Subjects with loss of CHR (Cohort 8 300 mg N=9): 2 (50) no. (%)
Subjects with loss of MCyR (Cohort 8 300 mg N=9): 1 (17) no. (%)
Subjects with loss of MMR (Cohort 8 300 mg N=9): 0 no. (%)
CCyR [1]: none and 0/5^*
MCyR [1]: none and 0/5
MMR [1]: 0/5^*
MMR (Subjects with BCR::ABL1^T315I (N = 16)): 0/16
CCyR achieved at treatment (Total N=51): 10 no. (%) and 10 (20) no. (%)
CCyR by 6 months (Total N=51): 6 (12) no. (%)
CCyR by 12 months (Total N=51): 7 (14) no. (%)
CHR achieved at treatment (Total N=51): 14 no. (%) and 14 (47) no. (%)
CHR by the 3 months (Total N=51): 11 (37) no. (%)
CHR by the 6th months (Total N=51): 11 (37) no. (%)
CHR by the 12th months (Total N=51): 14 (47) no. (%)
MCyR achieved at treatment (Total N=51): 14 no. (%) and 14 (32) no. (%)
MCyR by 6 months (Total N=51): 10 (23) no. (%)
MCyR by 12 months (Total N=51): 11 (25) no. (%)
MMR achieved at treatment (Total N=51): 7 no. (%) and 7 (14) no. (%)
MMR by 6 months (Total N=51): 4 (8) no. (%)
MMR by 12 months (Total N=51): 4 (8) no. (%)
MMR by 24 months (Total N=51): 7 (14) no. (%)
Subjects with loss of CCyR (Total N=51): 2 (20) no. (%)
Subjects with loss of CHR (Total N=51): 8 no. (%) and 8 (57) no. (%)
Subjects with loss of MCyR (Total N=51): 2 (14) no. (%)
subjects achieving deep molecular response MR4.5 (dose of 300 mg): One
Median time to achieving a CHR (in vivo): 3.8 months
median time to MMR (in vivo): 5,6 months
median time to achievement of CCyR (in vivo): 5.6 months
median time to achievement of MCyR (in vivo): 4.5 months
Best response achieved on PF-114 (dose cohort 50 mg): CHR
Best response achieved on PF-114 (dose cohort 100 mg, listed as PF-114): MCyR and MMR
Best response achieved on PF-114 (dose cohort 125 mg): MR 4.5
Best response achieved on PF-114 (dose cohort 200 mg, listed as PF-114): CHR and MCyR and CCyR and MR 4
Best response achieved on PF-114 (dose cohort 300 mg, listed as PF-114): MMR and CHR and MR 4 and CCyR and MR 4.5
Best response achieved on PF-114 (dose cohort 400 mg, listed as PF-114): CHR and CCyR and MCyR
Best response achieved on PF-114 (dose cohort 600 mg): CHR
Best response achieved on PF-114 (dose cohort 750 mg): CHR
time to CHR (one subject, myeloid variant M0 blast crisis, i(17) and BCR::ABL1^T315I): 5 weeks
duration of CCyR (subjects with BCR::ABL1^T315I): 2.8 months
duration of MCyR (subjects with BCR::ABL1^T315I): 2.8 months
